One assay has as its target T1, V₁(pressor)-receptor (Rattus norvegicus, UniProt P30560).
T1 construct: crude membrane preparation of rat liver (V₁ receptor); from tissue; host or cells: rat liver, crude membrane preparation
In words: [³H]Arginine Vasopressin Binding Assay, liver membranes (V₁). The text has this:
(§1) The table summarizes the in vitro potencies of the various components to compete for ³H-vasopressin binding at two proposed vasopressin receptor subtypes (V₁, V₂), as well as to inhibit vasopressin-stimulated adenylate cyclase activity, a further measure of vasopressin antagonism.
(§2) The [³H]Arginine Vasopressin Binding Assay is an in vitro procedure which was adapted from the method of Guillon et al., Eur. J. Pharmacol. 85: […] (1982). It measures the relative affinity of the various test compounds for vasopressin receptor(s) labelled by [³H]vasopressin. Vasopressin receptors have been divided into two subtypes pharmacologically: the V₁(pressor)-receptor found in liver and vascular smooth muscle and the V₂(antidiuretic)-receptor found in kidney medulla. The binding assay uses a crude membrane preparation of rat liver (V₁ receptor) or kidney medulla (V₂ receptor) which is incubated with [³H]vasopressin in the presence or absence of the test compound. The IC₅₀ values (concentrations to inhibit [³H]vasopressin binding by 50%) for the various compounds (see Table III) are measures of their potencies and are inversely related to their affinities.

Assay [1] concerns the target T2, Vasopressin-stimulated adenylate cyclase in kidney medulla (V₂) (Rattus norvegicus, UniProt Q00788).
T2 construct: Vasopressin-stimulated adenylate cyclase in kidney medulla, therefore, is used as a functional assay; from tissue
Briefly: Vasopressin-stimulated adenylate cyclase functional assay in kidney medulla (V₂ antagonism). The format is biochemical.
From the text: as §1
Vasopressin exerts its antidiuretic effects on the kidney through the stimulation of adenylate cyclase activity. Vasopressin-stimulated adenylate cyclase in kidney medulla, therefore, is used as a functional assay to determine the potencies of the various test compounds as V₂-vasopressin antagonists. In this assay, the IC₅₀ values obtained for the various compounds (see Table III) are measures of their potencies to inhibit the vasopressin-stimulated conversion of ATP to cAMP by adenylate cyclase. This method was adapted from Seamon et al., PNAS 78: 3363-3367 (1981).

In assay [2] the target is T3, V₂(antidiuretic)-receptor (Rattus norvegicus, UniProt Q00788).
T3 construct: crude membrane preparation of rat liver (V₁ receptor) or kidney medulla (V₂ receptor); from tissue; host or cells: rat kidney medulla, crude membrane preparation
In words: [³H]Arginine Vasopressin Binding Assay, kidney medulla membranes (V₂).
From the text: as §1, §2

For another assay, the target named is T4, oxytocin receptor (Rattus norvegicus, UniProt P70536).
T4 construct: crude membrane preparation of rat uterus as the source of oxytocin receptors; from tissue; host or cells: rat uterus, crude membrane preparation
T4 sequence (P70536 1-388): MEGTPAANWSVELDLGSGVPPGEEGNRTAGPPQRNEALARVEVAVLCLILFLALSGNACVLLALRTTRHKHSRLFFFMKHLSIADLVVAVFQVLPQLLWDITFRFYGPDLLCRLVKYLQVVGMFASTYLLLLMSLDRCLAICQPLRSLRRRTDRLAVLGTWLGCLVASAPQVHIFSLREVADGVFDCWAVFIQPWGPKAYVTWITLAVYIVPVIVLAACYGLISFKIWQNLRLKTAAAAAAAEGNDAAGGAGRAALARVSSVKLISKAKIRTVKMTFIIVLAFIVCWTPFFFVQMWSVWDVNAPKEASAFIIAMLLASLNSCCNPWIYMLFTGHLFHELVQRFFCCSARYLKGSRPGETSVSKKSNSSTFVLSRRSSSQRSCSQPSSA
In words: [³H]Oxytocin Binding Assay (crude membrane preparation of rat uterus). The following applies: inhibition of [³H]oxytocin binding, rat uterus membranes; read-out: IC₅₀ (nM) [³H]OT (uterus). The source says:
Oxytocin receptors have been identified in mammalian uterine tissue through the use of in vitro radioligand binding assays. These receptor binding sites mediate the contractile response of the uterine myometrium to oxytocin. […] The assay uses a crude membrane preparation of rat uterus as the source of oxytocin receptors. […]

Setting [3] is: IC₅₀ Values ³H-Arg⁸-Vasopressin Binding Liver (V₁), rat liver membranes, mean ± standard error.
The mark [4] stands for this setting: IC₅₀ Values ³H-Arg⁸-Vasopressin Binding Kidney (V₂), rat kidney medulla membranes, mean ± standard error.

Read-outs that look alike come from different tables or passages of the source. Numbered stars: 1 amine (or outer) side, 2 acyl side, 3 side chain; on linkers, the order of the positions; unused ones are H or OH. Square brackets hold non-standard residues; d marks the D form. Peptide text beside a SMILES is read from it. ξ: configuration not given here. ξN(OH)Ile(3ξ) = CCC(C)C(NO)C(=O)O; NMeF = CN[CH](Cc1ccccc1)C(=O)O; X1 = O=C(C1CCCNN1[*:1])[*:2]

T3 sequence (Q00788 whole entry): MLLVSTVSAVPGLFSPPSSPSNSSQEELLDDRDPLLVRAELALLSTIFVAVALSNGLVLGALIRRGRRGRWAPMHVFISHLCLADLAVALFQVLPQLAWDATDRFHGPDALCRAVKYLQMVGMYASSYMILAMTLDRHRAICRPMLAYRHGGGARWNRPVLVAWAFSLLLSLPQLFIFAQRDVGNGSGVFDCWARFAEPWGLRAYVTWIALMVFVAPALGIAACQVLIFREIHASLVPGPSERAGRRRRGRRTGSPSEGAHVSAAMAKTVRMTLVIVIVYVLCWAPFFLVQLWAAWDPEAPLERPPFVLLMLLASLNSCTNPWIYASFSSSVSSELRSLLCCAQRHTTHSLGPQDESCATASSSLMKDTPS
T2 sequence (Q00788 whole entry): as above
T1 sequence (P30560 whole entry): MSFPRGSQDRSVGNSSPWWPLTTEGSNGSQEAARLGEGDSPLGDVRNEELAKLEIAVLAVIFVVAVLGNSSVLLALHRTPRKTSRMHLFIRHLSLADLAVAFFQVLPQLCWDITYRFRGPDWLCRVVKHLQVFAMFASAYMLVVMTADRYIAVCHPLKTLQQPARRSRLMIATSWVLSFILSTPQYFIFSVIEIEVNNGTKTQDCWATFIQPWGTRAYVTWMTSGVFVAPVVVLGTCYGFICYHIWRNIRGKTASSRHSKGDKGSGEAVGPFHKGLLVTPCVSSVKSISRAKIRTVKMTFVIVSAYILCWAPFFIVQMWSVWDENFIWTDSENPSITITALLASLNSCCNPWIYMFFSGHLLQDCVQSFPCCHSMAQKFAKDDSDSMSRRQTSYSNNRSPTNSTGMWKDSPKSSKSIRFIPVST

Take `CC(C)C1C(=O)N2NCCCC2C(=O)N2NCCCC2C(=O)N(C)C(Cc2ccccc2)C(=O)N2CCCC2C(=O)NC(Cc2ccccc2)C(=O)N1O` (centres unmarked) [Component A]: the IC50 on V₁(pressor)-receptor (setting [3]) came to 6.8 µM; in assay [1] it was 19 µM; in assay [2] (setting [4]), 7.9 µM.

Regarding `CC(C)CC1C(=O)N2NCCCC2C(=O)N2NCCCC2C(=O)N(C)C(Cc2ccccc2)C(=O)N2CCCC2C(=O)NC(C(C)C)C(=O)N1O` (centres unmarked) [Component B], the results for the IC50 (on V₁(pressor)-receptor (setting [3]); in assay [1]; in assay [2] (setting [4])) were 67.3 ± 16.5 µM, 62.7 ± 4.6 µM and 35.3 ± 6.1 µM, respectively.

As to `CC(C)CC1C(=O)N2NCCCC2C(=O)N2NCCCC2C(=O)N(C)C(Cc2ccccc2)C(=O)N2CCCC2C(=O)NC(Cc2ccccc2)C(=O)N1O` (centres unmarked) [Component C], the IC50 was 6 µM on V₁(pressor)-receptor (IC₅₀ Values ³H-Arg⁸-Vasopressin Binding Liver (V₁), rat liver membranes, molar IC₅₀ in brackets, based on MW of 700); 5.53 µM on V₁(pressor)-receptor (IC₅₀ Values ³H-Arg⁸-Vasopressin Binding Liver (V₁), rat liver membranes, value in µg/ml (exact MW not known)); 13 µM in assay [1] (read-out: IC₅₀ Values AVP-stimulated Ad. Cyclase Kidney (V₂), kidney medulla, molar IC₅₀ in brackets, based on MW of 700); 12.1 µM in assay [1] (read-out: IC₅₀ Values AVP-stimulated Ad. Cyclase Kidney (V₂), kidney medulla, value in µg/ml (exact MW not known)); 13 µM in assay [2] (IC₅₀ Values ³H-Arg⁸-Vasopressin Binding Kidney (V₂), rat kidney medulla membranes, molar IC₅₀ in brackets, based on MW of 700); 11.9 µM in assay [2] (IC₅₀ Values ³H-Arg⁸-Vasopressin Binding Kidney (V₂), rat kidney medulla membranes, value in µg/ml (exact MW not known)).

As for `CCC(C)C1NC(=O)C2CCCN2C(=O)C(Cc2ccccc2)N(C)C(=O)C2CCCNN2C(=O)C2CCCNN2C(=O)C(CC(C)C)N(O)C1=O` (centres unmarked) [Component D], the IC50 at V₁(pressor)-receptor (rat liver membranes, molar IC₅₀ in brackets, based on MW of 700, read-out: IC₅₀ Values ³H-Arg⁸-Vasopressin Binding Liver (V₁) (converted)) is 30 µM; on V₁(pressor)-receptor (rat liver membranes, value in µg/ml (exact MW not known), read-out: IC₅₀ Values ³H-Arg⁸-Vasopressin Binding Liver (V₁) (converted)) it was 28.4 µM; in assay [1] (kidney medulla, molar IC₅₀ in brackets, based on MW of 700, read-out: IC₅₀ Values AVP-stimulated Ad. Cyclase Kidney (V₂) (converted)) it was 20 µM; in assay [1] (kidney medulla, value in µg/ml (exact MW not known), read-out: IC₅₀ Values AVP-stimulated Ad. Cyclase Kidney (V₂) (converted)) it was 19.3 µM; in assay [2] (rat kidney medulla membranes, molar IC₅₀ in brackets, based on MW of 700, read-out: IC₅₀ Values ³H-Arg⁸-Vasopressin Binding Kidney (V₂) (converted)), 19 µM; in assay [2] (rat kidney medulla membranes, value in µg/ml (exact MW not known), read-out: IC₅₀ Values ³H-Arg⁸-Vasopressin Binding Kidney (V₂) (converted)), 18.3 µM.

Turning to `CCC(C)C1NC(=O)C(Cc2ccccc2)NC(=O)C2CCCN2C(=O)C(Cc2ccccc2)N(C)C(=O)C2CCCNN2C(=O)C2CCCNN2C1=O` (centres unmarked) [Example 9] (cyclo([X1][X1][NMeF]PFI); configuration not given here), the IC50 on oxytocin receptor was 170 ± 15 nM.

For `CCC(C)C1C(=O)N2NCCCC2C(=O)N2NCCCC2C(=O)N(C)C(Cc2ccccc2)C(=O)N2CCCC2C(=O)NC(Cc2ccccc2)C(=O)N1O` (centres unmarked) [Formula I] (cyclo([ξN(OH)Ile(3ξ)][X1][X1][NMeF]PF); configuration not given here), the IC50 is 11.7 ± 1.7 µM on V₁(pressor)-receptor, 10.2 ± 1.1 µM in assay [1], 370 ± 70 nM at oxytocin receptor and 9.8 ± 1.7 µM in assay [2].

The record behind these values is patent EP0327744A1, “Oxytocin and vasopressin antagonists” (Merck & Co., Inc., priority 1988, dated 1989).
